How the values were obtained:
[1] = Heat stability by differential scanning calorimetry (DSC); assay type: physicochemical; conditions: heat stability data by DSC
Protocol: Specifically, 2,7-naphthalenedithiol (2,7-form) described in the Patent Document 1 has a melting point of 186 to 188° C., 2,6-naphthalenedithiol (2,6-form) has a melting point of 196 to 197° C., and 1,5-naphthalenedithiol (1,5-form) described in the Nonpatent Document 1 has a melting point of 120 to 121° C. Thus, these positional isomers of naphthalenedithiol each have a high melting point and are expected to show boiling point elevation due to hydrogen bonds of mercapto groups. […] Thus, it is technically difficult to adopt purification of these naphthalenedithiols by distillation at a relatively high temperature. For example, when 1,5-form, 2,6-form, and 2,7-form are tried to be distilled under vacuum, an outflow (or exit) line is to be maintained at a high temperature in order to prevent crystallization. However, such a high temperature of the outflow line causes not only easy re-evaporation of the naphthalenedithiols in the outflow line but also crystallization and clogging of the naphthalenedithiols in a subsequent line, thus making it impossible to operate the distillation.

[2] = Dissolubility (maximum dissolved concentration in organic solvents, by HPLC); assay type: physicochemical; conditions: 25° C.; for Dissolubility DMF: N,N-dimethylformamide; for Dissolubility PGMEA: propylene glycol monomethyl ether acetate; for Dissolubility THF: tetrahydrofuran
Protocol: In each of predetermined solvents described in the Table below, a sample was mixed at a temperature of 25° C., and the dissolubility of the sample was evaluated. In more detail, the sample was added to a predetermined amount of a solvent until the sample could not be dissolved, and the sample content of the liquid phase (the solvent phase) of the resulting mixture was analyzed using an HPLC (“SPD-20A” manufactured by SHIMADZU CORPORATION), and thus the concentration (the maximum dissolved concentration) of the sample in the liquid phase (the solvent phase) was determined as a solubility.

| temperature at which weight decreases by 5% or more [1] [°C] | Dissolubility DMF [2] [% by mass] | Dissolubility Ethyl acetate [2] [% by mass] | Dissolubility Methanol [2] [% by mass] | Dissolubility PGMEA [2] [% by mass] | Dissolubility THF [2] [% by mass] | Dissolubility Toluene [2] [% by mass] | Compound |
| --- | --- | --- | --- | --- | --- | --- | --- |
| 188 | 7.75 | 0.90 | 0.16 | 1.05 | 5.24 | 0.76 | Sc1ccc2ccc(S)cc2c1 [Comparative Example 7, 2,7-naphthalenedithiol] |
| 176 | 34.4 | 7.05 | 1.08 | 7.44 | 29.0 | 7.26 | Sc1cccc2c(S)cccc12 [Comparative Example 5, 1,5-naphthalenedithiol] |
| – | – | – | 19.3 | – | – | – | Sc1ccc2c(S)cccc2c1 [Example 1, 1,6-naphthalenedithiol] |
| 196 | 3.54 | 0.65 | 0.11 | 0.73 | 4.03 | 0.64 | Sc1ccc2cc(S)ccc2c1 [Comparative Example 6, 2,6-naphthalenedithiol] |

— patent US20240217926A1, “1,6-NAPHTHALENEDITHIOL PRODUCT AND PROCESS FOR PRODUCING THE SAME” (SUGAI CHEMICAL INDUSTRY CO., LTD., priority 2022, published 2024)
